Test results from patent US6967215B2, “Tetrahydrocarbazoles, a process for the preparation of those compounds, and the use thereof” (Ciba Specialty Chemicals Corporation, priority 2000, dated 2005).

Experiments:
[1] = system: Escherichia coli NCTC 8196; assay: MIC, microtitre dilution test (growth by optical density at 620 nm); assay type: cell-based; conditions: Table 2; Escherichia coli
Description: (§1) Casein/soybean flour peptone bouillon for the preparation of pre-cultures of the test bacteria and yeast.
(§2) The test substances are predissolved in dimethyl sulfoxide (DMSO) and tested in a dilution series of 1:2.
(§3) Bacteria and yeast are cultured overnight in CASO bouillon, the mould is cultured overnight on mycological slant agar, and washed off with 10 ml of 0.85% sodium chloride solution (+0.1% TritonX-100).
(§4) All the test organisms are adjusted to an organism count of 1-5×10^6 CFU/ml using 0.85% sodium chloride solution.
(§5) The test substances are pre-pipetted into microtitre plates in an amount of 8 μl per well.
(§6) Pre-diluted organism suspensions are diluted 1:100 in CASO bouillon (bacteria and yeast) or Sabouraud 2% glucose bouillon (mould) and are added in an amount of 192 μl per well to the test substances.
(§7) The test batches are incubated for 48 hours at 37° C. (bacteria and yeast) or for 5 days at 28° C. (mould).
(§8) After incubation, the growth is evaluated by reference to the turbidity of the test batches (optical density) at 620 nm in a microplate reader.
(§9) The minimum inhibitory concentration (MIC value) is the concentration of substance at which (compared with the growth of the control) an appreciable inhibition of growth (≦20% growth) of the test organisms is ascertained.
(§10) One microtitre plate is used for each test organism and substance concentration. All the substances are tested in duplicate.

[2] = system: Staphylococcus hominis DMS 20328; assay: as above; assay type: cell-based; conditions: Table 2; Staphylococcus hominis DMS 20328
Description: as §1, §2, §3, §4, §5, §6, §7, §8, §9, §10

SMILES	MIC [ppm] E. coli [1] [ppm]	MIC [ppm] S. hominis [2] [ppm]
CCN1C(=O)C2c3[nH]c4ccccc4c3C3CCC(C(C)(C)C)CC3C2C1=O (stereo not shown) [Compound 39]	>120	>120
Cn1c2c(c3ccccc31)C1CC(C)(C)NC(C)(C)C1C1C(=O)N(c3ccccc3)C(=O)C21 (stereo not shown) [Compound 24]	>120	>120
CCC(C)(C)C1CCC2c3c([nH]c4ccccc34)C3C(=O)N(C)C(=O)C3C2C1 (stereo not shown) [Compound 120]	>120	30
CCCCCCC1CCC2C3C(=O)NC(=O)C3c3[nH]c4ccccc4c3C12 (stereo not shown) [Compound 57]	>120	>120
COc1ccc2[nH]c3c(c2c1)C1CCCC1C1C(=O)N(C)C(=O)C31 (stereo not shown) [Compound 165]	>120	120
CCc1cccc2c3c([nH]c12)C1C(=O)N(C)C(=O)C1C1CCCCCCC31 (stereo not shown) [Compound 162]	>120	120
CN1C(=O)C2c3[nH]c4ccc(Br)cc4c3C3CCC(C(C)(C)C)CC3C2C1=O (stereo not shown) [Compound 129]	>120	>120
CCN1C(=O)C2c3c(c4ccccc4n3C)C3CCC(C(C)(C)C)CC3C2C1=O (stereo not shown) [Compound 49]	>120	>120
CCCN1CCC2c3c([nH]c4ccccc34)C3C(=O)N(CC)C(=O)C3C2C1 (stereo not shown) [Compound 41]	>120	>120
COc1ccc2[nH]c3c(c2c1)C1CCCCCC1C1C(=O)NC(=O)C31 (stereo not shown) [Compound 94]	>120	>120
COc1ccc2[nH]c3c(c2c1)C1CCCCC1C1C(=O)N(C)C(=O)C31 (stereo not shown) [Compound 164]	>120	>120
COc1ccc2[nH]c3c(c2c1)C1CCCCCCC1C1C(=O)N(C)C(=O)C31 (stereo not shown) [Compound 180]	>120	>120
Cn1c2c(c3ccccc31)C1CCC(C(C)(C)C)CC1C1C(=O)N(c3ccccc3)C(=O)C21 (stereo not shown) [Compound 22]	>120	>120
CC(C)(C)C1CCC2c3c([nH]c4ccccc34)C3C(=O)NC(=O)C3C2C1 (stereo not shown) [Compound 26]	>120	15
COc1ccc2[nH]c3c(c2c1)C1CCN(C)CC1C1C(=O)NC(=O)C31 (stereo not shown) [Compound 105]	>120	>120
CCOC(=O)N1CCC2c3c([nH]c4ccc(OC)cc34)C3C(=O)N(C)C(=O)C3C2C1 (stereo not shown) [Compound 170]	>120	>120
CCc1cccc2c3c([nH]c12)C1C(=O)NC(=O)C1C1CCCCC31 (stereo not shown) [Compound 74]	>120	60
CCCC1CCC2c3c([nH]c4ccccc34)C3C(=O)N(C)C(=O)C3C2C1 (stereo not shown) [Compound 119]	>120	>120
COc1ccc2[nH]c3c(c2c1)C1CCN(C)CC1C1C(=O)N(C)C(=O)C31 (stereo not shown) [Compound 178]	>120	>120
COc1ccc2[nH]c3c(c2c1)C1CC(C)(C)NC(C)(C)C1C1C(=O)N(C)C(=O)C31 (stereo not shown) [Compound 168]	>120	>120
COc1ccc2[nH]c3c(c2c1)C1CCCCCCCCCCC1C1C(=O)N(C)C(=O)C31 (stereo not shown) [Compound 179]	>120	>120
CCN1C(=O)C2c3[nH]c4ccc(Br)cc4c3C3CCC(C(C)(C)C)CC3C2C1=O (stereo not shown) [Compound 44]	>120	>120
CCC(C)(C)C1CCC2c3c([nH]c4ccc(OC)cc34)C3C(=O)N(C)C(=O)C3C2C1 (stereo not shown) [Compound 175]	>120	>120
CCc1cccc2c3c([nH]c12)C1C(=O)NC(=O)C1C1CCCCCC31 (stereo not shown) [Compound 77]	>120	15
COc1ccc2[nH]c3c(c2c1)C1CCN(Cc2ccccc2)CC1C1C(=O)NC(=O)C31 (stereo not shown) [Compound 104]	>120	>120

The remaining lines, values ahead:

MIC [ppm] E. coli [1] [ppm]	MIC [ppm] S. hominis [2] [ppm]	SMILES
120	>120	CN1CCC2c3c([nH]c4ccccc34)C3C(=O)N(C)C(=O)C3C2C1 (stereo not shown) [Compound 123]
>120	7.5	CCc1cccc2c3c([nH]c12)C1C(=O)NC(=O)C1C1CCCCCCC31 (stereo not shown) [Compound 89]
>120	>120	CCN1CCC2c3c([nH]c4ccc(OC)cc34)C3C(=O)NC(=O)C3C2C1 (stereo not shown) [Compound 103]
>120	>120	CC(C)(C)C1CCC2c3c([nH]c4ccccc34)C3C(=O)N(c4ccccc4)C(=O)C3C2C1 (stereo not shown) [Compound 13]
>120	>120	CCN1CCC2c3c([nH]c4ccc(OC)cc34)C3C(=O)N(C)C(=O)C3C2C1 (stereo not shown) [Compound 176]
>120	>120	CN1C(=O)C2c3[nH]c4ccccc4c3C3CCCCCCC3C2C1=O (stereo not shown) [Compound 125]
>120	>120	COc1ccc2[nH]c3c(c2c1)C1CCCC1C1C(=O)NC(=O)C31 (stereo not shown) [Compound 92]
>120	>120	COc1ccc2[nH]c3c(c2c1)C1CC(C)(C)CC(C)(C)C1C1C(=O)N(C)C(=O)C31 (stereo not shown) [Compound 181]
>120	>120	COc1ccc2[nH]c3c(c2c1)C1CC(C)(C)CC(C)(C)C1C1C(=O)NC(=O)C31 (stereo not shown) [Compound 108]
>120	>120	COc1ccc2[nH]c3c(c2c1)C1CCC(C(C)(C)C)CC1C1C(=O)N(C)C(=O)C31 (stereo not shown) [Compound 166]
>120	3.75	O=C1NC(=O)C2C1c1[nH]c3ccc(Br)cc3c1C1CCCCCC12 (stereo not shown) [Compound 32]
>120	>120	CC(C)N1CCC2c3c([nH]c4ccccc34)C3C(=O)NC(=O)C3C2C1 (stereo not shown) [Compound 55]
>120	60	CN1C(=O)C2c3[nH]c4ccccc4c3C3CCC(C(C)(C)C)CC3C2C1=O (stereo not shown) [Compound 111]
>120	30	CCCC1CCC2c3c([nH]c4ccc(OC)cc34)C3C(=O)N(C)C(=O)C3C2C1 (stereo not shown) [Compound 174]
120	120	COc1ccc2[nH]c3c(c2c1)C1CCN(Cc2ccccc2)CC1C1C(=O)N(C)C(=O)C31 (stereo not shown) [Compound 177]
>120	>120	Cn1c2c(c3ccccc31)C1CCC(C(C)(C)C)CC1C1C(=O)NC(=O)C21 (stereo not shown) [Compound 36]
>120	>120	CCN1CCC2c3c([nH]c4ccccc34)C3C(=O)N(C)C(=O)C3C2C1 (stereo not shown) [Compound 121]
120	120	CCCN1CCC2c3c([nH]c4ccc(Br)cc34)C3C(=O)N(CC)C(=O)C3C2C1 (stereo not shown) [Compound 46]
>120	>120	CC1(C)CC2c3c([nH]c4ccccc34)C3C(=O)NC(=O)C3C2C(C)(C)N1 (stereo not shown) [Compound 28]
>120	60	CCC(C)(C)C1CCC2c3c([nH]c4ccc(OC)cc34)C3C(=O)NC(=O)C3C2C1 (stereo not shown) [Compound 102]
>120	>120	CN1C(=O)C2c3[nH]c4ccccc4c3C3CC(C)(C)NC(C)(C)C3C2C1=O (stereo not shown) [Compound 113]
>120	>120	CCc1cccc2c3c([nH]c12)C1C(=O)NC(=O)C1C1C3CC(C)(C)CC1(C)C (stereo not shown) [Compound 90]
>120	>120	CCOC(=O)N1CCC2c3c([nH]c4ccc(Br)cc34)C3C(=O)NC(=O)C3C2C1 (stereo not shown) [Compound 68]
>120	>120	CCCC1CCC2c3c([nH]c4ccc(OC)cc34)C3C(=O)NC(=O)C3C2C1 (stereo not shown) [Compound 101]
>120	60	CCOC(=O)N1CCC2c3c([nH]c4ccccc34)C3C(=O)N(C)C(=O)C3C2C1 (stereo not shown) [Compound 115]
>120	120	CC(C)N1CCC2c3c([nH]c4ccccc34)C3C(=O)N(C)C(=O)C3C2C1 (stereo not shown) [Compound 116]
>120	>120	CCCN1CCC2c3c([nH]c4ccccc34)C3C(=O)N(c4ccccc4)C(=O)C3C2C1 (stereo not shown) [Compound 15]
>120	>120	COc1ccc2[nH]c3c(c2c1)C1CCN(C(C)C)CC1C1C(=O)N(C)C(=O)C31 (stereo not shown) [Compound 171]
